Where “and” joins values, the source holds several entries; their conditions need not be identical. Identical values can stand only once. Like-named read-outs stand apart in the source and are kept apart here. Residues, ends and D or L forms follow the SMILES beside them.
What was measured:
[1] = tested on: human red blood cells; test: Hemolytic activity; type: cell-based
Procedure: Hemolytic activity was studied by incubating the fusion constructs with human red blood cells at concentrations of 0.01, 0.1, 1, 10 and 50 μM for 2 hours. Saline and 0.1% Triton served as controls.
Hemolytic activity of the compounds was studied by incubating EP-301 and EP-302 with human red blood cells at concentrations of 0.01, 0.1, 1, 10 and 50 μM for 2 hours.

[2] = tested on: MDA-MB-435S breast cancer cells; type: cell-based, human
Procedure: Twelve different fusion constructs were analyzed for anti-cancer activity in vitro against MDA-MB-435S breast cancer cells and for hemolytic activity in vitro to human red blood cells. Fusion constructs of the following sequence were tested:
The peptide conjugates were freshly dissolved in saline and added into cancer cell seeded multi-well plates at increasing concentrations of 0, 0.001, 0.01, 0.1, 1, 2, 5, 10 and 100 μM. Incubations were conducted for 4 h at 37° C. Cell viability was determined using formazan conversion assays (MTT assays). Controls were treated with USP saline or 0.1% TritonX-100™ as reference for 0 and 100% cell death, respectively. Cytotoxicity was evaluated as an IC50 value.

[3] = target: nucleolin expressed on the surface of human cancer cell lines (human, UniProt P19338); test: cell-based or functional assay
[4] = MDA-MB-435S, 4 h at 37° C, MTT, read-out: IC50

Molecule | IC50 ([2]; 4 h) [nM] | IC50 of cytotoxicity (MTT), MDA-MB-435S breast cancer cells, 4 h [3] [nM] | other results
CC(C)C[C@H](NC(=O)[C@H](CCCNC(=N)N)NC(=O)[C@H](C)NC(=O)[C@H](Cc1ccccc1)NC(=O)[C@H](CCCCN)NC(=O)[C@H](C)NC(=O)[C@H](Cc1ccccc1)NC(=O)[C@H](CCCCN)NC(=O)[C@H](CCCCN)NC(=O)[C@H](C)NC(=O)[C@H](Cc1ccccc1)NC(=O)[C@H](CCCCN)NC(=O)[C@H](C)NC(=O)[C@H](Cc1ccccc1)NC(=O)[C@H](CCCCN)NC(=O)[C@H](CCCCN)NC(=O)[C@H](C)NC(=O)[C@H](Cc1ccccc1)NC(=O)[C@H](CCCCN)NC(=O)[C@H](C)NC(=O)[C@H](Cc1ccccc1)NC(=O)[C@@H](N)CCCCN)C(=O)N[C@@H](Cc1ccccc1)C(=O)N[C@@H](C)C(=O)N[C@@H](CCCCN)C(=O)O (H-KFAKFAKKFAKFAKKFAKFARLFAK-OH) | – | – | HA50 ([1]; human red blood cells, 2 hours): 14.3 µM and 14.3 ± 2.1 µM; IC50 [2, 4]: 1230 ± 700 nM
CC(C)C[C@H](NC(=O)[C@H](CCCNC(=N)N)NC(=O)[C@H](C)NC(=O)[C@H](CO)NC(=O)[C@H](CCCNC(=N)N)NC(=O)[C@H](CCCNC(=N)N)NC(=O)[C@H](CCC(N)=O)NC(=O)[C@@H]1CCCN1C(=O)[C@H](C)NC(=O)[C@H](CCCNC(=N)N)NC(=O)[C@H](CCCCN)NC(=O)[C@H](CCCCN)NC(=O)[C@H](C)NC(=O)[C@H](Cc1ccccc1)NC(=O)[C@H](CCCCN)NC(=O)[C@H](CCCCN)NC(=O)[C@H](C)NC(=O)[C@H](Cc1ccccc1)NC(=O)[C@H](CCCCN)NC(=O)[C@H](C)NC(=O)[C@H](Cc1ccccc1)NC(=O)[C@H](CCCCN)NC(=O)[C@H](CCCCN)NC(=O)[C@H](C)NC(=O)[C@H](Cc1ccccc1)NC(=O)[C@H](CCCCN)NC(=O)[C@H](C)NC(=O)[C@H](Cc1ccccc1)NC(=O)[C@@H](N)CCCCN)C(=O)N[C@@H](CO)C(=O)N[C@@H](C)C(=O)N[C@@H](CCCCN)C(=O)O (H-KFAKFAKKFAKFAKKFAKKRAPQRRSARLSAK-OH; N-terminus and C-terminus assumed) | 7300 | – | HA50 [1]: Not hemolytic
CC(C)C[C@H](NC(=O)[C@H](CCCNC(=N)N)NC(=O)[C@H](C)NC(=O)[C@H](CCCNC(=N)N)NC(=O)[C@H](CCCCN)NC(=O)[C@H](C)NC(=O)[C@H](Cc1ccccc1)NC(=O)[C@H](CCCCN)NC(=O)[C@H](CCCCN)NC(=O)[C@H](C)NC(=O)[C@H](Cc1ccccc1)NC(=O)[C@H](CCCCN)NC(=O)[C@H](C)NC(=O)[C@H](Cc1ccccc1)NC(=O)[C@H](CCCCN)NC(=O)[C@H](CCCCN)NC(=O)[C@H](C)NC(=O)[C@H](Cc1ccccc1)NC(=O)[C@H](CCCCN)NC(=O)[C@H](C)NC(=O)[C@H](Cc1ccccc1)NC(=O)[C@@H](N)CCCCN)C(=O)N[C@@H](CCC(N)=O)C(=O)O (H-KFAKFAKKFAKFAKKFAKRARLQ-OH) | 3600 | – | –
CC(C)C[C@H](NC(=O)[C@H](CCCNC(=N)N)NC(=O)[C@H](C)NC(=O)[C@H](CCCNC(=N)N)NC(=O)[C@H](CCCCN)NC(=O)[C@H](C)NC(=O)[C@H](Cc1ccccc1)NC(=O)[C@H](CCCCN)NC(=O)[C@H](CCCCN)NC(=O)[C@H](C)NC(=O)[C@H](Cc1ccccc1)NC(=O)[C@H](CCCCN)NC(=O)[C@H](C)NC(=O)[C@H](Cc1ccccc1)NC(=O)[C@H](CCCCN)NC(=O)[C@H](CCCCN)NC(=O)[C@H](C)NC(=O)[C@H](Cc1ccccc1)NC(=O)[C@H](CCCCN)NC(=O)[C@H](C)NC(=O)[C@H](Cc1ccccc1)NC(=O)[C@@H](N)CCCCN)C(=O)N[C@@H](CCC(N)=O)C(=O)N[C@@H](CCCNC(=N)N)C(=O)N[C@@H](CCCNC(=N)N)C(=O)O (H-KFAKFAKKFAKFAKKFAKRARLQRR-OH) | 1600 ± 50 | – | HA50 [1]: Not hemolytic
CC(C)C[C@H](NC(=O)[C@H](CCCNC(=N)N)NC(=O)[C@H](C)NC(=O)[C@H](CCCNC(=N)N)NC(=O)[C@H](CCCCN)NC(=O)[C@H](C)NC(=O)[C@H](Cc1ccccc1)NC(=O)[C@H](CCCCN)NC(=O)[C@H](CCCCN)NC(=O)[C@H](C)NC(=O)[C@H](Cc1ccccc1)NC(=O)[C@H](CCCCN)NC(=O)[C@H](C)NC(=O)[C@H](Cc1ccccc1)NC(=O)[C@H](CCCCN)NC(=O)[C@H](CCCCN)NC(=O)[C@H](C)NC(=O)[C@H](Cc1ccccc1)NC(=O)[C@H](CCCCN)NC(=O)[C@H](C)NC(=O)[C@H](Cc1ccccc1)NC(=O)[C@@H](N)CCCCN)C(=O)N[C@@H](CCC(N)=O)C(=O)N[C@@H](CCCNC(=N)N)C(=O)N[C@@H](CCCNC(=N)N)C(=O)N[C@@H](Cc1ccccc1)C(=O)O (H-KFAKFAKKFAKFAKKFAKRARLQRRF-OH) | 870 ± 3 | – | HA50 [1]: Not hemolytic
CC(C)C[C@H](NC(=O)[C@H](CCCNC(=N)N)NC(=O)[C@H](C)NC(=O)[C@H](Cc1ccccc1)NC(=O)[C@H](CCCNC(=N)N)NC(=O)[C@H](CCCNC(=N)N)NC(=O)[C@H](CCC(N)=O)NC(=O)[C@H](CC(C)C)NC(=O)[C@H](CCCNC(=N)N)NC(=O)[C@H](CCCCN)NC(=O)[C@H](C)NC(=O)[C@H](Cc1ccccc1)NC(=O)[C@H](CCCCN)NC(=O)[C@H](CCCCN)NC(=O)[C@H](C)NC(=O)[C@H](Cc1ccccc1)NC(=O)[C@H](CCCCN)NC(=O)[C@H](C)NC(=O)[C@H](Cc1ccccc1)NC(=O)[C@H](CCCCN)NC(=O)[C@H](CCCCN)NC(=O)[C@H](C)NC(=O)[C@H](Cc1ccccc1)NC(=O)[C@H](CCCCN)NC(=O)[C@H](C)NC(=O)[C@H](Cc1ccccc1)NC(=O)[C@@H](N)CCCCN)C(=O)N[C@@H](Cc1ccccc1)C(=O)N[C@@H](C)C(=O)N[C@@H](CCCCN)C(=O)O (H-KFAKFAKKFAKFAKKFAKRLQRRFARLFAK-OH) | – | – | IC50 [2, 4]: 740 ± 120 nM
CC(C)C[C@H](NC(=O)[C@H](CCCNC(=N)N)NC(=O)[C@H](C)NC(=O)[C@H](CO)NC(=O)[C@H](CCCCN)NC(=O)[C@H](C)NC(=O)[C@H](Cc1ccccc1)NC(=O)[C@H](CCCCN)NC(=O)[C@H](CCCCN)NC(=O)[C@H](C)NC(=O)[C@H](Cc1ccccc1)NC(=O)[C@H](CCCCN)NC(=O)[C@H](C)NC(=O)[C@H](Cc1ccccc1)NC(=O)[C@H](CCCCN)NC(=O)[C@H](CCCCN)NC(=O)[C@H](C)NC(=O)[C@H](Cc1ccccc1)NC(=O)[C@H](CCCCN)NC(=O)[C@H](C)NC(=O)[C@H](Cc1ccccc1)NC(=O)[C@@H](N)CCCCN)C(=O)N[C@@H](CO)C(=O)N[C@@H](C)C(=O)N[C@@H](CCCCN)C(=O)O (H-KFAKFAKKFAKFAKKFAKSARLSAK-OH) | 4100 | – | –
CC(C)C[C@H](NC(=O)[C@H](CCCNC(=N)N)NC(=O)[C@H](C)NC(=O)[C@H](Cc1ccccc1)NC(=O)[C@H](CCCNC(=N)N)NC(=O)[C@H](CCCNC(=N)N)NC(=O)[C@H](CCC(N)=O)NC(=O)[C@H](CC(C)C)NC(=O)[C@H](CCCNC(=N)N)NC(=O)[C@H](C)NC(=O)[C@@H](NC(=O)[C@H](CCCCN)NC(=O)[C@H](C)NC(=O)[C@H](Cc1ccccc1)NC(=O)[C@H](CCCCN)NC(=O)[C@H](CCCCN)NC(=O)[C@H](C)NC(=O)[C@H](Cc1ccccc1)NC(=O)[C@H](CCCCN)NC(=O)[C@H](C)NC(=O)[C@H](Cc1ccccc1)NC(=O)[C@H](CCCCN)NC(=O)[C@H](CCCCN)NC(=O)[C@H](C)NC(=O)[C@H](Cc1ccccc1)NC(=O)[C@H](CCCCN)NC(=O)[C@H](C)NC(=O)[C@H](Cc1ccccc1)NC(=O)[C@@H](N)CCCCN)C(C)C)C(=O)N[C@@H](Cc1ccccc1)C(=O)N[C@@H](C)C(=O)N[C@@H](CCCCN)C(=O)O (H-KFAKFAKKFAKFAKKFAKVARLQRRFARLFAK-OH) | 400 ± 2 | – | –
KFAKFAKKFAKFAKKFAKVARLQRRFARLFAK [KFAKFAKKFAKFAKKFAKV19ARLQRRFARLFAK32] | – | 400 | –
KFAKFAKKFAKFAKKFAKKRAPQRRSARLSAK [KFAKFAKKFAKFAKKFAKK19RAPQRRSARLSAK32] | – | 7300 | –
KFAKFAKKFAKFAKKFAKVARLQRRFA [KFAKFAKKFAKFAKKFAKV19ARLQRRFA27] | – | 800 | –
KFAKFAKKFAKFAKKFAKRARLQRRF [KFAKFAKKFAKFAKKFAKR19ARLQRRF26] | – | 870 | –
KFAKFAKKFAKFAKKFAKRARLQRR [KFAKFAKKFAKFAKKFAKR19ARLQRR25] | – | 1600 | –
KFAKFAKKFAKFAKKFAKRLQRRFARLFAK [KFAKFAKKFAKFAKKFAKR19LQRRFARLFAK30] | – | 740 | –
KFAKFAKKFAKFAKKFAKRLQRRSARLSAK [KFAKFAKKFAKFAKKFAKR19LQRRSARLSAK30] | – | 2200 | –
KFAKFAKKFAKFAKKFAKFARLFAK [KFAKFAKKFAKFAKKFAKF19ARLFAK25] | – | 1230 | –
KFAKFAKKFAKFAKKFAKSARLSAK [KFAKFAKKFAKFAKKFAKS19ARLSAK25] | – | 4100 | –
KFAKFAKKFAKFAKKFAKRARLQ [KFAKFAKKFAKFAKKFAKR19ARLQ23] | – | 3600 | –
